Laboratory results: patent US20240108740A1, “THERAPEUTIC COMPOSITIONS INCLUDING SPN10 AND USES THEREOF” (Stealth BioTherapeutics Inc., priority 2022, published 2024)
Residues, ends and D or L forms follow the SMILES beside them.

Columns and labels:
Sprague-Dawley rats = experiment: Example 42: CCl4-induced chronic nephrotoxicity; format: in vivo, rat
Source text: […]
Renal Histology: Kidneys will be fixed in 10% neutral-buffered formalin and embedded in paraffin wax for sectioning. Three-micron sections will be stained with hematoxylin-eosin (H&E) and analyzed by light microscopy by a certified pathologist.

[1] = test system: CD36 knockout (CD36 KO) mice; experiment: Example 3: acute cerebral ischemia in CD36 knockout mice; format: in vivo, mouse
Method: CD36 knockout (CD36 KO) mice will be subjected to acute cerebral ischemia as described in Example 2. CD36 KO mice will be given either saline vehicle (Veh) (i.p., n=5), peptide conjugates (2 mg/kg or 5 mg/kg, i.p., n=6), aromatic-cationic peptides (e.g., an equivalent molar dose of aromatic-cationic peptide based on the concentration of the aromatic-cationic peptide administered in the peptide conjugate treatment group), SPN10(s) (e.g., an equivalent molar dose of SPN10 based on the concentration of SPN10 administered in the peptide conjugate treatment group), or SPN10(s) in combination with aromatic-cationic peptides (e.g., an equivalent molar dose of SPN10 based on the concentration of SPN10 administered in the peptide conjugate treatment group and an equivalent molar dose of aromatic-cationic peptide based on the concentration of aromatic-cationic peptide administered in the peptide conjugate treatment group) at 0, 6, 24 and 48 hours following a 30 minute period of ischemia. Infarct volume and hemispheric swelling in CD36 KO mice are expected to be similar in subjects receiving saline, SPN10(s) (alone or in combination with aromatic-cationic peptides), aromatic-cationic peptides and peptide conjugates.

[2] = test system: Isolated guinea pig hearts; experiment: Example 6: isolated hearts, 18 hours cold ischemic storage and warm reperfusion
Method: Isolated guinea pig hearts will be perfused with St. Thomas solution alone or St. Thomas solution containing peptide conjugates (1-100 nM), aromatic-cationic peptides (e.g., an equivalent molar dose of aromatic-cationic peptide based on the concentration of the aromatic-cationic peptide administered in the peptide conjugate treatment group), SPN10(s) (e.g., an equivalent molar dose of SPN10 based on the concentration of SPN10 administered in the peptide conjugate treatment group), or SPN10(s) in combination with aromatic-cationic peptides (e.g., an equivalent molar dose of SPN10 based on the concentration of SPN10 administered in the peptide conjugate treatment group and an equivalent molar dose of aromatic-cationic peptide based on the concentration of aromatic-cationic peptide administered in the peptide conjugate treatment group) for 3 minutes and then stored in the same solution at 4° C. for 18 hours. After ischemic storage, hearts will be re-perfused with 34° C. Krebs-Henseleit solution for 90 min. Hearts freshly isolated from guinea pigs will be used as controls.
The hearts will be fixed in paraffin and sliced for immunostaining with an anti-CD36 rabbit polyclonal antibody. It is anticipated that the sections from a representative heart stored in St. Thomas solution for 18 hours at 4° C. will show increased CD36 staining compared to freshly isolated controls.
It is also anticipated that there will be a decrease in lipid peroxidation in the hearts treated with peptide conjugates, aromatic-cationic peptides, or SPN10(s) (with or without aromatic-cationic peptides). […]

SMILES: N=C(N)NCCC[C@H](NC(=O)[C@@H](N)Cc1c[nH]c2ccccc12)C(=O)N[C@@H](Cc1c[nH]c2ccccc12)C(=O)N[C@@H](CCCCN)C(N)=O [SPN10, H-L-Trp-L-Arg-L-Trp-L-Lys-NH2] (H-WRWK-NH2)
- histopathological changes (H&E) compared to untreated control animals of Group (1) (Sprague-Dawley rats; rat, in vivo): no significant histopathological changes
- protection of renal tubules from CCl4 nephrotoxicity (Sprague-Dawley rats; s.c. 5 days per week, 7 weeks): protect renal tubules from CCl4 nephrotoxicity
- infarct volume and hemispheric swelling in CD36 KO mice ([1]; compared with saline): similar
- GSH depletion in the ipsilateral cortex in CD36 KO mice ([1]; mouse, in vivo): fail to further prevent GSH depletion
- coronary blood flow after cold ischemic storage and warm reperfusion [2]: significant improvement of coronary blood flow
- HNE staining in stored hearts ([2]; 18 hours cold ischemia, 90 minutes reperfusion): reduced
- CD36 staining in stored hearts ([2]; St. Thomas solution, 18 hours, 4° C.): significantly reduced
